Laboratory results reported in PMC11091889, “Silver Organometallics that are Highly Potent Thioredoxin and Glutathione Reductase Inhibitors: Exploring the Correlations of Solution Chemistry with the Strong Antibacterial Effects” (ACS Infectious Diseases, 2024).

Experiments:
[1] = test system: K. pneumoniae (DSM 11678, ATCC33495); assay: Broth microdilution antibacterial assay; format: cell-based, Klebsiella pneumoniae; conditions: n = 3, MHB
How it was run: (§1)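 Broth microdilution used 2–8 × 10^5 CFU/mL inocula, with compounds serially diluted 64 to 1 μg/mL and incubated 22 h at 37 °C, read at 600 nm. A. baumannii, K. pneumoniae and P. aeruginosa were grown in MHB pH 7.4; E. faecium was grown in TSY pH 7.0–7.2. MIC and EC50 were obtained by curve fitting from three independent experiments.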

[2] = molecular target: T1, glutathione reductase (GR) from baker's yeast (Saccharomyces cerevisiae, UniProt P41921); assay: GR inhibition assay (DTNB reduction); format: biochemical; conditions: ± standard deviation, n = 3, 75 min preincubation
T1 construct: purchased Sigma-Aldrich
T1 sequence (P41921 17-483 limits assumed): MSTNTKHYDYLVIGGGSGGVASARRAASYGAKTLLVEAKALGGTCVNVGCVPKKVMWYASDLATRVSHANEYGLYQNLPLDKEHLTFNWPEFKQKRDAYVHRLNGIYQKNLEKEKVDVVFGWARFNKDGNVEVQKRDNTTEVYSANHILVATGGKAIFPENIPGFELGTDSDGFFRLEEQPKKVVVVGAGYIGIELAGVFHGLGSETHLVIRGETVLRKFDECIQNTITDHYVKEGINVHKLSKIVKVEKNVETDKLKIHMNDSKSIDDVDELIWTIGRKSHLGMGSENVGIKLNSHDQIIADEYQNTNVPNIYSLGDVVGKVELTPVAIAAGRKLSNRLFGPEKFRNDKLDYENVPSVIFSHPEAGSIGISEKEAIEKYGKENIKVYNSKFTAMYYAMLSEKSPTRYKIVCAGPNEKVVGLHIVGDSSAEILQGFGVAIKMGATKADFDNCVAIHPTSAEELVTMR
Experimental: (§2) The inhibition of purified E. coli thioredoxin reductase (TrxR) and glutathione reductase (GR) from both E. coli and baker’s yeast was determined according to a previously applied procedure.[59],[60]
(§3) The TrxR (E. coli) and GR (baker’s yeast and E. coli) inhibition assays were performed according to previously published procedures.[62],[75] The assays are partly based on the procedure developed by Lu et al.[60] and make use of the reduction of 5,5′-dithiobis(2-nitrobenzoic acid) (DTNB). Solutions of E. coli TrxR (35.4 U/mL) and E. coli thioredoxin (Trx) (156 μg/mL) (both purchased from Sigma-Aldrich) or baker’s yeast GR (0,08 U/mL, Sigma-Aldrich) or E. coli GR (4.2 U/ml, Antibodies online) and GSSG (0.28 mM, Sigma-Aldrich) in distilled water were prepared, as were fresh 2 mM stock solutions of the test compounds in DMSO. Then, solutions with several concentrations of the test compounds in DMSO were prepared, and 35 μL of each solution was diluted with 965 μL of TE buffer (Tris–HCl 50 mM, EDTA 1 mM, pH 7.5). These solutions (20 μL) or TE buffer without the test compounds (20 μL, as control) were mixed with the TrxR or GR solutions (10 μL), the Trx or GSSG solutions (10 μL), and a solution of NADPH (200 μM) in TE buffer (100 μL) in a well on a 96-well plate. As a blank solution, 200 μM NADPH in TE buffer (100 μL) mixed with a DMSO/buffer mixture (40 μL) was used (final concentrations of DMSO: 0.5% v/v). The plate was incubated for 75 min at 25 °C with moderate shaking. After incubation, 100 μL of a reaction mixture (TE buffer containing 200 μM NADPH and 5 mM DTNB) was added to each well to initiate the reaction. After thorough mixing, the formation of 5-TNB was monitored by a microplate reader at 405 nm in 35 s intervals (10 measurements). The values were corrected by subtraction of the blank solution absorption values. The increase in the concentration of 5-TNB followed a linear trend (r^2 ≥ 0.990), and the enzymatic activities were calculated as the gradients (increase in absorbance per second) thereof. […] The inhibition is presented as the mean IC50 values and standard deviations obtained in three independent experiments.

[3] = test system: A. baumannii (DSM 30007, ATCC 19606); assay: Broth microdilution antibacterial assay; format: cell-based, Acinetobacter baumannii; conditions: n = 3, MHB
How it was run: as §1

[4] = test system: P. aeruginosa PA7 (DSM 24068); assay: microbe, parasite or virus in culture; format: cell-based, Pseudomonas aeruginosa; conditions: n = 3, MHB
How it was run: as §1

[5] = molecular target: E. coli thioredoxin reductase (TrxR) (Escherichia coli, UniProt P0A9P4); conditions: read-out: IC50 TrxR from E. coli; ± standard deviation, n = 3, 75 min preincubation
Chain of E. coli thioredoxin reductase (TrxR) (P0A9P4 whole entry): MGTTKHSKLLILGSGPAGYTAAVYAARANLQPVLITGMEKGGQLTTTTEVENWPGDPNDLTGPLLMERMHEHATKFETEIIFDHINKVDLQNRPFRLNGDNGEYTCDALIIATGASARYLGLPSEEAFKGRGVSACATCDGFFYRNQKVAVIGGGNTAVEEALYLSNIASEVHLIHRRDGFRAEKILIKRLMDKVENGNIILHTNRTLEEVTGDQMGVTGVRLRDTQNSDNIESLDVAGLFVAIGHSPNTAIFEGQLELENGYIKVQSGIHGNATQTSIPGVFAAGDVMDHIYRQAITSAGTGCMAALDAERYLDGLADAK
Experimental: as §2, §3

[6] = test system: E. faecium (DSM 20477, ATCC 19434); assay: Broth microdilution antibacterial assay; format: cell-based, Enterococcus faecium; conditions: n = 3, TSY
How it was run: as §1

[7] = test system: E. coli (DSM1116, ATCC 9637); assay: microbe, parasite or virus in culture; format: cell-based, Escherichia coli
How it was run: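 Escherichia coli DSM1116 (ATCC 9637) was tested by broth microdilution in 96-well plates in duplicate, with compounds serially diluted from 64 to 1 μg/mL. Inocula of 2–8 × 10^5 CFU/mL were used in MHB (21 g/L Müller Hinton broth, pH 7.4), either alone or supplemented with tryptone (17 g/L) or yeast extract (3 g/L). After 22 h at 37 °C, absorbance at 600 nm was read. MIC and EC50 were obtained by curve fitting in Sigma Plot from three independent experiments, and ciprofloxacin served as the positive control.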

[8] = molecular target: T2, glutathione reductase (GR) from E. coli (Escherichia coli, UniProt P06715); assay: GR inhibition assay (DTNB reduction); format: biochemical; conditions: ± standard deviation, n = 3, 75 min preincubation
T2 construct: purchased Antibodies online
T2 sequence (P06715 1-450): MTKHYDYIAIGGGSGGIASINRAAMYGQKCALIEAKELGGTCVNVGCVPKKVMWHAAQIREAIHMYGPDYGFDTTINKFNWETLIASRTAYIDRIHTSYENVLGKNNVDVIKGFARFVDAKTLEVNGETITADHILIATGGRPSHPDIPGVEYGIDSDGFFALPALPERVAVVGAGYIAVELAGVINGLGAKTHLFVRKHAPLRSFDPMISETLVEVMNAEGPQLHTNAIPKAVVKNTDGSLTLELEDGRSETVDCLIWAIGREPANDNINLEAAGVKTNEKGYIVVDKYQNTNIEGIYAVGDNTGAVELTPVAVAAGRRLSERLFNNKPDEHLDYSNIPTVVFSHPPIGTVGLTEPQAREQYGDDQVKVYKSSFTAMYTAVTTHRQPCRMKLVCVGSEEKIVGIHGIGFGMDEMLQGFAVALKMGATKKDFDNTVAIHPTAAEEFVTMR
Experimental: as §2, §3

[9] = test system: S. aureus MRSA (DSM 11822, ICB 25701); assay: microbe, parasite or virus in culture; format: cell-based, methicillin resistant S. aureus; conditions: n = 3, TSY
How it was run: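 Broth microdilution in TSY (30 g/L trypticase soy broth, 3 g/L yeast extract, pH 7.0–7.2), inoculum 2–8 × 10^5 CFU/mL, compounds serially diluted 64 to 1 μg/mL, 22 h at 37 °C. Growth read as absorbance at 600 nm; MIC and EC50 obtained by curve fitting, three independent experiments.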

[10] = Conductometry: molar conductivity of silver complexes in DMSO; format: physicochemical; conditions: 1.0 mM in DMSO, calculated as monocarbene (NHC)AgX
How it was run: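 Molar conductivity of each silver complex was measured at 1.0 mM in freshly distilled DMSO (specific conductivity ≤3 × 10^–8 S cm^–1) using an Apera Instruments EC9500 conductivity meter at 25 ± 2 °C. AgNO3 served as the 1:1 electrolyte reference, and readings were taken after dissolution to distinguish neutral monocarbene from ionic biscarbene forms.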

Structure (SMILES): O=[N+]([O-])[O-].[Ag+] [AgNO3, Silver nitrate, reference compound]
- MIC K. pneumoniae ([1]; mean ± standard error, 22 h): 5.9 ± 0.0 µM
- EC50 ([1]; mean ± standard error, read-out: EC50 K. pneumoniae): 4.41 ± 0.5 µM
- MIC K. pneumoniae (value in brackets) ([1]; 22 h): 1 µg/mL
- IC50 [2]: 0.033 ± 0.003 µM
- MIC A. baumannii ([3]; mean ± standard error, 22 h): 5.9 ± 0.0 µM
- EC50 ([3]; mean ± standard error, read-out: EC50 A. baumannii): 4.16 ± 0.4 µM
- MIC A. baumannii (value in brackets) ([3]; 22 h): 1 µg/mL
- MIC P. aeruginosa ([4]; mean ± standard error, 22 h): 5.9 ± 0.0 µM
- EC50 ([4]; mean ± standard error, read-out: EC50 P. aeruginosa): 4.12 ± 0.4 µM
- MIC P. aeruginosa (value in brackets) ([4]; 22 h): 1 µg/mL
- IC50 [5]: 0.054 ± 0.005 µM
- MIC E. faecium ([6]; mean ± standard error, 22 h): 94.1 ± 0.0 µM
- EC50 ([6]; mean ± standard error, read-out: EC50 E. faecium): 75.9 ± 5.7 µM
- MIC E. faecium (value in brackets) ([6]; 22 h): 16 µg/mL
- MIC E. coli DSM 1116 in MHB + tryptone ([7]; Müller-Hinton Broth with tryptone (17 g/L), ± SE): 251.1 ± 62.8 µM
- MIC E. coli DSM 1116 in MHB + yeast extract ([7]; Müller-Hinton Broth with yeast extract (3 g/L), ± SE): 123.6 ± 29.4 µM
- MIC E. coli DSM 1116 in MHB ([7]; Müller-Hinton Broth without additive, ± SE): 5.89 ± 0.0 µM
- EC50 ([7]; mean ± standard error, n = 3, MHB): 4.87 ± 0.1 µM
- MIC E. coli ([7]; mean ± standard error, n = 3, MHB, 22 h): 5.9 ± 0.0 µM
- MIC E. coli (value in brackets) ([7]; n = 3, MHB, 22 h): 1 µg/mL
- IC50 [8]: 0.031 ± 0.001 µM
- MIC MRSA ([9]; mean ± standard error, 22 h): 188 ± 0.0 µM
- EC50 ([9]; mean ± standard error, read-out: EC50 MRSA): 98.9 ± 6.4 µM
- MIC MRSA (value in brackets) ([9]; 22 h): 32 µg/mL
- Molar conductivity ΛM ([10]; 1 h after dissolution): 37.8 S cm^2 mol^–^1
- Molar conductivity ΛM ([10]; 24 h after dissolution): 38.1 S cm^2 mol^–^1
